# Measured values taken from ChEMBL document CHEMBL5604062, “ASAP - ZIKV NS2B-NS3 protease fluorescence dose response” (2024).
# pIC50: −log10 of the molar value. “And” between values parts separate entries of the source, which are not always exact repeats. Identical values can stand only once.
# Target: Nonstructural protein 3 (Zika virus, UniProt A0A024AXB9)
# Assay: Functional biochemical assay to identify treatments for viral infectious disease that targets Zika NS2B-NS3 protease. Utilizing a direct enzyme activity measurement method, reading the fluorescence intensity is used to characterize the relative potency of inhibitors as IC50.
# Parameters: species or system PRVABC59
# Nonstructural protein 3, sequence (A0A024AXB9 whole entry): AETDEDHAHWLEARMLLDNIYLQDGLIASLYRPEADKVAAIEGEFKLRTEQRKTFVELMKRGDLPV
Compound,pIC50,IC50
C[C@H](CC(=O)O)N(C)C(=O)c1cc(Cl)cc(NC(=O)OCc2ccccc2)c1,< 4.00,–
CCc1sc(C(=O)Nc2cccc(-c3nnn[nH]3)c2)cc1C,< 4.00,–
O=C(O)CCc1ccc(NC(=O)c2cc(Cl)cc(C3CC3)c2)cc1,< 4.00,–
CC(C)C[C@H](NC(=O)c1cc(Cl)cc(NC(=O)OCc2ccccc2)c1)c1nnn[nH]1,< 4.00,–
Cc1c(C(=O)Nc2cccc(-c3nnn[nH]3)c2)sc2ccccc12,< 4.00,–
O=C(Nc1cc(Cl)cc(C(=O)NC[C@H]2C[C@@H]2C(=O)O)c1)OCc1ccccc1,< 4.00,–
O=C(Nc1cc(Cl)cc(C(=O)NCc2ccc(-c3nnn[nH]3)cc2)c1)OCc1ccccc1,4.17,–
CS(=O)(=O)c1cc(CN)cc([C@@H]2C[C@H]2c2cc(Cl)cc(NC(=O)OCc3ccccc3)c2)c1,4.36,–
CCc1[nH]c(-c2ccccc2)cc1C(=O)Nc1cccc(-c2nnn[nH]2)c1,< 4.00,–
CS(=O)(=O)NC(=O)c1cc(CN)cc(NC(=O)c2cc(Cl)cc(NC(=O)OCc3ccccc3)c2)c1,5.15,–
CC(=Cc1cc(Cl)cc(NC(=O)OCc2ccccc2)c1)c1cccc(CN)c1,5.28,–
C#C[C@H](Nc1cccc(C(=O)O)c1)c1cc(Cl)cc2[nH]ncc12,< 4.00,–
CCc1cc(C(=O)Nc2cccc(-c3nnn[nH]3)c2)ccc1Cl,< 4.00,–
C[C@H](NC(=O)c1cc(Cl)cc(NC(=O)OCc2ccccc2)c1)C(=O)O,< 4.00,–
O=C(Nc1ccc(-n2nn[nH]c2=O)cc1)c1cc(Cl)cc(C2CC2)c1,< 4.00,–
Cc1c(C(=O)Nc2cccc(-c3nnn[nH]3)c2)n[nH]c1-c1ccc(Cl)cc1,< 4.00,–
CC(C)[C@H](NC(=O)c1cc(Cl)cc(NC(=O)OCc2ccccc2)c1)C(=O)O,< 4.00,–
C=CC[C@H](Nc1cc(Cl)cc(NC(=O)OCc2ccccc2)c1)c1cccc(CN)c1,5.11,–
O=C(Nc1cccc(-c2nnn[nH]2)c1)c1ccc(-c2cccnc2)s1,< 4.00,–
O=C(Nc1cc(Cl)cc(C(=O)Nc2cccc3c2OC[C@H](C(=O)O)C3)c1)OCc1ccccc1,< 4.00,–
Clc1ccc2[nH]cc(Cc3cccc(-c4nn[nH]n4)c3)c2c1,< 4.00,–
O=C(Nc1cc(Cl)cc([C@H](C#CCO)Nc2cccc(-c3nn[nH]n3)c2)c1)OCc1ccccc1,4.42,–

Compound,pIC50,IC50
O=C(Nc1cc(Cl)cc(C(=O)NCC[C@H]2C[C@@H]2C(=O)O)c1)OCc1ccccc1,< 4.00,–
Cc1c(C(=O)Nc2cc(CCCN)ccc2F)cc(C2CC2)n1C,4.16,–
Clc1cc(/C=C/c2cccc(-c3nn[nH]n3)c2)c2cn[nH]c2c1,< 4.00,–
COc1c(C(=O)N(C)C)cc(Cl)cc1S(=O)(=O)Nc1cccc(-c2nnn[nH]2)c1,< 4.00,–
N#C[C@H](Nc1cccc(-c2nn[nH]n2)c1)c1cc(Cl)cc(NC(=O)OCc2ccccc2)c1,4.61 and 4.56,–
O=C(Nc1ccc2c(c1)CNC2)c1cc(Cl)cc2[nH]ncc12,–,< 50 nM (2×) and 139 nM and 164 nM
CCCc1sc(C(=O)Nc2cccc(-c3nnn[nH]3)c2)cc1CC,< 4.00,–
C=CC[C@H](Nc1cccc(-c2nn[nH]n2)c1)c1cc(Cl)cc2[nH]ncc12,< 4.00,–
Cc1c(C(=O)Nc2ccc([C@@H](C)N)cc2)cc(C2CC2)n1C,< 4.00,–
CNC(=O)[C@H](Nc1cccc(-c2nn[nH]n2)c1)c1cc(Cl)cc(NC(=O)OCc2ccccc2)c1,< 4.00,–
CC[C@H](Cc1nnn[nH]1)c1ccc(NC(=O)c2cc(Cl)cc(-n3cccc3)c2)cc1,4.28,–
O=C(O)CCCc1ccc(NC(=O)c2cc(Cl)cc(NC(=O)OCc3ccccc3)c2)cc1,< 4.00,–
O=C(Nc1cc(Cl)cc(C(=O)Nc2cncc(C(=O)O)c2)c1)OCc1ccccc1,< 4.00,–
NCCc1ccc([C@H]2C[C@@H]2c2cc(Cl)cc(NC(=O)OCc3ccccc3)c2)cc1,5.60,–
CNC(=O)[C@H](Nc1cccc(-c2nn[nH]n2)c1)c1cc(Cl)cc2[nH]ncc12,5.04,–
NCc1ccc2nc(-c3cc(Cl)cc(NC(=O)OCc4ccccc4)c3)c(CCCO)cc2c1,4.29,–
Clc1cc(CCc2cccc(-c3nn[nH]n3)c2)c2cn[nH]c2c1,< 4.00,–
O=C(Nc1cc(Cl)cc(-c2ccc3[nH]c(C(=O)O)cc3c2)c1)OCc1ccccc1,5.12,–
O=C(Nc1ccc(-c2nnn[nH]2)cc1)c1cc(Cl)cc(C2CC2)c1,< 4.00,–
O=C(O)Cn1ncc2cc(-c3cc(Cl)cc(NC(=O)OCc4ccccc4)c3)ccc21,4.34,–
CCNC(=O)Nc1cc(Cl)cc(C(=O)Nc2cc(C)cc(CN)c2)c1,6.17,–
O=C(Nc1cc(Cl)cc(S(=O)(=O)Nc2cccc(-c3nn[nH]n3)c2)c1)OCc1ccccc1,< 4.00,–

Compound,pIC50,IC50
NCc1cc(C(=O)O)cc([C@@H]2C[C@H]2c2cc(Cl)cc(NC(=O)OCc3ccccc3)c2)c1,< 4.00,–
CCc1nc(C)c(C(=O)Nc2cccc(-c3nnn[nH]3)c2)s1,< 4.00,–
C[C@H](C(=O)O)c1cccc(NC(=O)c2cc(Cl)cc(NC(=O)OCc3ccccc3)c2)c1,< 4.00,–
C=CC[C@H](Nc1cc(Cl)cc(NC(=O)OCc2ccccc2)c1)c1cccc(-c2nn[nH]n2)c1,4.87 and 5.01 and 4.96,–
O=C(Nc1cc(Cl)cc([C@H]2C[C@@H]2c2cccc(C3CCNCC3)c2)c1)OCc1ccccc1,5.58,–
CCNC(=O)Nc1cc(Cl)cc(C(=O)Nc2ccc3c(c2)CNCCO3)c1,6.13,–
C=CC[C@H](Nc1cc(CN)ccn1)c1cc(Cl)cc(NC(=O)OCc2ccccc2)c1,< 4.00,–
CNC(=O)[C@H](Nc1cccc(C(=O)O)c1)c1cc(Cl)cc2[nH]ncc12,< 4.00,–
CCNC(=O)Nc1cc(Cl)cc(C(=O)Nc2cccc(C3CCNCC3)c2)c1,4.70,–
O=C(Nc1cc(Cl)cc([C@H](C#CCO)Nc2ccc(-c3nn[nH]n3)cc2)c1)OCc1ccccc1,4.64,–
C#C[C@H](Nc1cccc(-c2nn[nH]n2)c1)c1cc(Cl)cc(NC(=O)OCc2ccccc2)c1,4.64,–
Cc1c(C(=O)Nc2cc(F)cc(CN)c2)cc(C2CC2)n1C,4.05,–
Cc1c(C(=O)Nc2cccc(CN)c2)cc(C2CCC2)n1C,< 4.00,–
Cc1c(C(=O)Nc2ccc(CN)cc2)cc(C2CC2)n1C,< 4.00,–
CN1C[C@H](c2cccc(CN)c2)[C@@H](c2cc(Cl)cc(NC(=O)OCc3ccccc3)c2)C1,< 4.00,–
O=C(Nc1cc(Cl)cc(C(=O)N[C@H]2CCCC[C@@H]2C(=O)O)c1)OCc1ccccc1,< 4.00,–
Cc1c(C(=O)Nc2cc(CN)ccc2F)cc(C2CC2)n1C,< 4.00,–
CNC(=O)[C@H](Nc1cc(Cl)cc(NC(=O)OCc2ccccc2)c1)c1cccc(-c2nn[nH]n2)c1,< 4.00,–
NCc1cccc([C@H](CCCO)Nc2cc(Cl)cc(NC(=O)OCc3ccccc3)c2)c1,4.56,–
O=C(Nc1cc(Cl)cc([C@H]2C[C@@H]2c2ccc3c(c2)CNC3)c1)OCc1ccccc1,4.64,–
CCNC(=O)Nc1cc(Cl)cc(C(=O)Nc2cc(CCCN)ccc2F)c1,5.21,–
O=C(Nc1cc(Cl)cc(C(=O)Nc2cccc(C3(C(=O)O)CCC3)c2)c1)OCc1ccccc1,4.16,–

Compound,pIC50,IC50
O=C(Nc1cc(Cl)cc(C(=O)Nc2cc(-c3nnn[nH]3)ccc2F)c1)OCc1ccccc1,4.38,–
CS(=O)(=O)NC(=O)c1cc(CN)cc([C@@H]2C[C@H]2c2cc(Cl)cc(NC(=O)OCc3ccccc3)c2)c1,< 4.00,–
N#C[C@H](Nc1ccc(-c2nn[nH]n2)cc1)c1cc(Cl)cc(NC(=O)OCc2ccccc2)c1,4.72,–
NCc1ccc([C@H]2C[C@@H]2c2cc(Cl)cc(NC(=O)OCc3ccccc3)c2)cc1,5.29,–
CCc1cc(C(=O)Nc2cccc(-c3nnn[nH]3)c2)sc1C,< 4.00,–
CCNC(=O)Nc1cc(Cl)cc(C(=O)Nc2cccc(-n3nn[nH]c3=O)c2)c1,< 4.00,–
O=C(O)CCCc1cccc(NC(=O)c2cc(Cl)cc(NC(=O)OCc3ccccc3)c2)c1,4.07,–
C=CC[C@H](Nc1cccc(-c2nn[nH]n2)c1)c1cc(Cl)cc(NC(=O)OCc2ccccc2)c1,5.03,–
O=C(Nc1cc(Cl)cc(C(=O)N[C@H](c2nn[nH]n2)C2CCNCC2)c1)OCc1ccccc1,< 4.00,–
O=C(Nc1cc(Cl)cc(/C=C/c2cccc(-n3nn[nH]c3=O)c2)c1)OCc1ccccc1,< 4.00,–
O=C(Nc1cc(Cl)cc(S(=O)(=O)Nc2cccc(-n3nn[nH]c3=O)c2)c1)OCc1ccccc1,< 4.00,–
N#C[C@H](Nc1cccc(C(=O)O)c1)c1cc(Cl)cc2[nH]ncc12,< 4.00,–
O=C(O)CCc1cccc(NC(=O)c2cc(Cl)cc(NC(=O)OCc3ccccc3)c2)c1,< 4.00,–
NCc1cccc(N[C@H](CCCO)c2cc(Cl)cc(NC(=O)OCc3ccccc3)c2)c1,4.21,–
COC(=O)c1cc(Cl)cc(S(=O)(=O)Nc2cccc(-c3nnn[nH]3)c2)c1F,< 4.00,–
N#C[C@H](Nc1cc(Cl)cc(NC(=O)OCc2ccccc2)c1)c1ccc(-c2nn[nH]n2)cc1,4.78,–
CNC(=O)C[C@H](Nc1cccc(F)n1)c1cc(Cl)cc(Br)c1,< 4.00,–
COc1c(C(N)=O)cc(Cl)cc1S(=O)(=O)Nc1cccc(-c2nnn[nH]2)c1,< 4.00,–
O=C(Nc1cc(Cl)cc(C(=O)Nc2ccc([C@@H]3C[C@H]3C(=O)O)cc2)c1)OCc1ccccc1,4.35,–
CCc1cc(C(=O)Nc2cccc(-c3nnn[nH]3)c2)nn1-c1ccccc1,< 4.00,–
